PubChem BioAssay (NCI)
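Briefly, cells in 96-well plates were exposed to five compound concentrations for 48 h, and endpoints were estimated by linear interpolation. GI50 = concentration required for 50% inhibition of growth. TGI marks complete inhibition of growth.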

Assays:
Experiment in all cases: growth of human tumour cells (NCI), 48 h
SNB-75 CNS = system: SNB-75 CNS
HOP-92 NSCLC = system: HOP-92 NSCLC
OVCAR-8 ovarian = system: OVCAR-8 ovarian
UACC-257 melanoma = system: UACC-257 melanoma
K-562 leukemia = system: K-562 leukemia
SF-268 CNS = system: SF-268 CNS
ACHN renal = system: ACHN renal
MDA-MB-435 = system: MDA-MB-435
SF-539 CNS = system: SF-539 CNS
HCT-15 colon = system: HCT-15 colon

SMILES	GI50 (SNB-75 CNS) [µM]	TGI (SNB-75 CNS) [µM]	GI50 (HOP-92 NSCLC) [µM]	TGI (HOP-92 NSCLC) [µM]	GI50 (OVCAR-8 ovarian) [µM]	TGI (OVCAR-8 ovarian) [µM]	GI50 (UACC-257 melanoma) [µM]	TGI (UACC-257 melanoma) [µM]	GI50 (K-562 leukemia) [µM]	TGI (K-562 leukemia) [µM]	GI50 (SF-268 CNS) [µM]	TGI (SF-268 CNS) [µM]	GI50 (ACHN renal) [µM]	TGI (ACHN renal) [µM]	GI50 (MDA-MB-435) [µM]	TGI (MDA-MB-435) [µM]	GI50 (SF-539 CNS) [µM]	TGI (SF-539 CNS) [µM]	TGI (HCT-15 colon) [µM]	GI50 (HCT-15 colon) [µM]
Cc1ccc(CS/C(=C\c2ccc([N+](=O)[O-])cc2)C(=O)c2ccc(F)cc2)cc1	19.2	71.8	14.1	41.3	3.42	19.4	5.61	19.9	3.21	> 100	4.13	20.7	1.73	3.1	2.41	6.49	3.22	10.8	–	–
CC1OC(n2cc(F)c(=O)[nH]c2=O)CCC1O (centres undefined)	–	> 100	–	> 100	–	> 100	–	> 100	–	> 100	–	> 100	–	> 100	–	> 100	–	84.4	> 100	–
C[C@]12CC[C@H](O)CC1=CC[C@@H]1[C@@H]2CC[C@]2(C)C(c3cccnc3)=CC[C@@H]12	7.69	> 48.7	8.7	> 55.9	29.5	> 100	> 100	> 100	3.99	> 100	15.7	> 100	18.7	> 100	12.2	> 100	8.31	> 100	> 100	25.8
Cc1nn(CN2CCN(C)CC2)c(=S)n1/N=C/c1cccc2ccccc12	11.1	38.1	19.9	46.5	19.1	37	22.2	44.6	15.2	37.5	24.5	68.2	20.1	38.4	18.6	43	18.3	34.7	33.5	16
CC[CH2][Pb]([CH2]CC)([CH2]CC)[O]C(=O)C(F)(F)F	0.0679	0.377	0.0291	0.223	–	–	0.154	0.455	0.0918	0.552	0.156	0.43	0.149	0.458	0.0379	0.106	0.156	0.424	0.587	0.124
Cc1ccc2c(c1)C(=O)/C(=C/c1ncc([N+](=O)[O-])n1C)O2	3.14	22.8	2.24	> 19.8	0.481	7	1.98	5.65	0.598	> 24.9	1.93	5.53	0.489	9.11	0.371	1.88	2.26	6.19	8.78	0.369
CCCCC/C(C=C(C#N)C#N)=C/c1ccccc1	12.4	27.7	5.82	21.8	3.34	> 100	17.2	47.6	3.8	35.3	2.45	9.51	4.53	16.5	1.77	4.11	5.17	17.7	27.5	5.13
O=C1NNC=Nc2ccc(cc2)S(=O)(=O)c2ccc(cc2)N=CNNC1=O	–	–	–	> 100	–	> 100	–	> 100	–	> 100	–	> 100	–	> 100	–	> 100	–	> 100	> 100	–
CSc1ccc(C2=NN(C(C)=O)C(c3cc(C)cs3)C2)cc1 (centres undefined)	22.1	> 100	21.6	90.1	32	> 100	28.4	96.1	9.31	> 100	35.6	> 100	30.1	> 100	23.4	> 100	39.8	> 100	> 100	24.6
Cc1ccc(-c2c3c([nH]c(=O)c2C#N)-c2cc(F)ccc2OC3)cc1	> 100	> 100	> 100	> 100	> 100	> 100	> 100	> 100	86.4	> 100	–	–	> 100	> 100	35.8	> 100	> 100	> 100	> 100	91
O=C(Nc1ccc(N2CCNCC2)cc1)c1[nH]ncc1Nc1cc(Oc2ccccc2)ncn1	2.45	5.6	2.35	5.32	2.91	12.2	2.86	8.69	2.22	10.9	3.57	14.4	0.213	0.479	1.68	4.66	1.69	3.35	5.64	2.18
O=C1c2cccc(NCCN=Cc3cc(O)ccc3O)c2C(=O)c2c(NCCN=Cc3cc(O)ccc3O)cccc21	–	–	1.29	4.87	0.884	3.21	3.1	10.8	1.45	3.9	0.776	3.25	2.05	8.93	1.53	3.08	–	–	10.5	2.84
O=C1/C(=C/c2ccc(Br)cc2)C=C(c2ccccc2)N1CCc1ccccc1	0.66	3.83	0.32	2.63	1.04	10	2.82	18.7	2.63	20.5	2.27	16.3	0.65	11	8.38	> 100	1.77	5.57	> 100	11.7
